Measured values taken from paper PMC10200060, “Inhibition of DAMP actions in the tumoral microenvironment using lactoferrin-glycyrrhizin conjugate for glioblastoma therapy” (Biomaterials Research, 2023).

How the values were obtained:
[1] = biological target: T1, human recombinant HMGB1 protein (Homo sapiens, UniProt P09429); experiment: SPR binding affinity against HMGB1; conditions: SPR, HMGB1 immobilized
T1 construct: purchased Abcam
T1 sequence (P09429 1-215): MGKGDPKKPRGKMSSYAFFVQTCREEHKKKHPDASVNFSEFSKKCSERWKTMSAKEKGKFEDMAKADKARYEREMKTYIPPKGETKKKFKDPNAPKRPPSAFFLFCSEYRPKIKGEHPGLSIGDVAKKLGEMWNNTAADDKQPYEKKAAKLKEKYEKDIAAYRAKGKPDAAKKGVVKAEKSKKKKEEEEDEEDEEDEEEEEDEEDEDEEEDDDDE
Method: To confirm the binding affinity of Lf-GL to HMGB1, Surface Plasmon Resonance (SPR) was conducted at WoojungBSC (Korea). The Reichert SR7500DC system (Reichert technologies, NA, USA) and Scrubber2 software (Biologic software, FRA) were used, and a CMDH chip (Cat #: 13,206,066, Reichert technologies) was used for immobilization of the human recombinant HMGB1 protein (Abcam). HMGB1 protein was used as a ligand, and the analytes were HMGB1 antibody (Abcam), GL, Lf and Lf-GL conjugate. The immobilization buffer was S.A. (10 × 10^–3 M, pH 4.5), and the running buffer was PBS (pH 7.4). The flow rate of the analyte was 30 μL min^−1. The association and dissociation time were 3 min each, and measurements were conducted at room temperature. Results are expressed in response units (RU) over time.
Fig. S5. Binding affinity against HMGB1. Surface Plasmon Resonance (SPR) was conducted at WoojungBSC (Korea). The Reichert SR7500DC system (Reichert technologies, NA, USA) and Scrubber2 software(Biologic software, FRA) were used and the CMDH chip (Cat #: 13206066, Reichert technologies) was used for immobilization of the human recombinant HMGB1 protein (Abcam). HMGB1 protein was used as ligand and analytes were HMGB1 antibody (Abcam), GL, Lf and Lf-GL conjugate. Immobilization buffer was 10 mM S.A. (pH 4.5) and running buffer was 1× PBS. The flow rate of the analyte was 30 μL min^-1. The association and dissociation time were 3 min each and conducted at room temperature. Results are expressed in response units (RU) over time.

HUVEC = HUVEC co-cultured with U87MG: CCK-8 at basal chamber; type: cell-based, human; conditions: HUVEC/U87MG Transwell co-culture, 100 μM GL equivalent, 24 h
Method: (§1) To evaluate the inhibitory effect of Lf-GL on neovascularization in the tumor microenvironment in vitro, U87MG cells were seeded in the Transwell® insert chambers that were 6.5 mm in diameter and had 0.4 μm pore sizes (seeding density: 2.5 × 10^4 cells per well, Corning). HUVECs were seeded in the Transwell basal chamber (seeding density: 5.0 × 10^4 cells per well). GL, Lf, or Lf-GL (100 × 10^–6 M of GL equivalent concentration) were added to the insert chamber, and cells were incubated for 24 h. CCK-8 assay and HMGB1 ELISA were conducted at the basal chamber.

HMGB1 = experiment: HUVEC co-cultured with U87MG: HMGB1 ELISA; type: cell-based, human; conditions: HUVEC/U87MG co-culture, 100 μM GL equivalent, 24 h (control 217.8 ± 5.9)
Method: as §1

[2] = In vivo fluorescence tracer image (brain); parameters: species or system Balb/c mice; conditions: FITC-tagged
Method: For the fluorescence tracer images, Balb/c mice were administered either FITC-tagged GL or FITC-tagged Lf-GL at a GL equivalent concentration of 50 mg kg^−1 body weight via tail vein injection. After 1, 10, 30, and 60 min, the experimental mice were sacrificed, and the organs were extracted. The fluorescence signals of FITC-tagged GL or FITC-tagged Lf-GL in organs were imaged using an in vivo imaging system (FOBI, CELLGENTEK, South Korea). The exposure time was fixed to 200 s for analyzing fluorescent signals from tissues. The quantified fluorescence signal of the brain at each time point was measured in terms of intensity units (IU, Intensity Min^−1 Gain^−1).
Fig. S15. Fluorescence tracer images of intravenously injected GL and Lf-GL. Balb/c mice were administered either FITC-tagged GL or FITC-tagged Lf-GL at a GL equivalent concentration of 50 mg kg^-1 body weight via tail vein injection. The fluorescence signals of FITC-tagged GL or FITC-tagged Lf-GL in organs were imaged using an in vivo imaging system (FOBI, CELLGENTEK, South Korea). The exposure time was fixed to 200 sec for analyzing fluorescent signals from tissues. The quantified fluorescence signal of brain at each time point was measured with Intensity Unit (IU, Intensity Min^-1 Gain^-1).

CD31 = experiment: Immunofluorescence staining of CD31 in GBM tissue; type: in vivo, Balb/c nude mice; conditions: GBM mice, daily i.v., 14 days (control MFI 14.7 ± 1.4)
Source text: After two weeks, mice were sacrificed, and the brains were harvested and fixed with paraformaldehyde (4%). Then, tissue processing was automatically conducted using a Leica TP1020 semi-enclosed Benchtop Tissue Processor (Leica Biosystems, Wetzlar, Hesse, Germany), followed by embedding in paraffin blocks. Paraffin blocks were sliced into 5 μm thick slices using a Leica RM2145 Microtome (Leica Biosystems). Nissl staining was used to stain brain tissue slides with pre-warmed 0.1% Cresyl Violet Stain Solution (Abcam). TUNEL assays were conducted following the manufacturer’s instructions. For immunofluorescence staining; anti-HMGB1 antibody (Abcam), anti-Ki67 antibody (Abcam), anti-CD31 antibody (Abcam), and anti-VEGF antibody (Abcam) were used as primary antibodies, and goat anti-rabbit IgG-H&L Alexa Fluor 488 and goat anti-rabbit IgG H&L Alexa Fluor 647 were used as secondary antibodies, followed by DAPI mounting.

Structure (SMILES): CC1(C)[C@@H](O[C@H]2O[C@H](C(=O)O)[C@@H](O)[C@H](O)[C@H]2O[C@@H]2O[C@H](C(=O)O)[C@@H](O)[C@H](O)[C@H]2O)CC[C@]2(C)[C@H]3C(=O)C=C4[C@@H]5C[C@@](C)(C(=O)O)CC[C@]5(C)CC[C@@]4(C)[C@]3(C)CC[C@@H]12 [GL, Glycyrrhizin]
- Kd, dissociation rate constant ([1]; PBS pH 7.4, room temperature): 0.00283 ± 3e-05 s⁻¹
- kon ([1]; PBS pH 7.4, room temperature, read-out: Ka, association rate constant): 5.3 ± 0.1 M⁻¹ s⁻¹
- Kd ([1]; read-out: KD, equilibrium dissociation constant (KD = Kd Ka^−1)): 540 ± 20 µM
- Reduction of endothelial cell proliferation (HUVEC): 10.7 ± 2.9%
- HMGB1 level in medium (HMGB1): 190.7 ± 19.0 ng/mL
- Time up to which fluorescence signal was detected in the brain ([2]; i.v. GL equivalent 50 mg kg^−1): ≤ 10 min
- Fluorescence intensity in the brain ([2]; i.v. GL equivalent 50 mg kg^−1, 10 min after injection): 7,914 I.U.
- Decrease of MFI of CD31 (CD31): approximately 4 fold
